Assay results reported in paper PMC9000499, “New Triazolyl N^N Bidentate Rh(III), Ir(III), Ru(II) and Os(II) Complexes: Synthesis and Characterization, Probing Possible Relations between Cytotoxicity with Transfer Hydrogenation Efficacy and Interaction with Model Biomolecules” (Molecules, 2022).
“And” between values parts separate entries of the source, which are not always exact repeats. Equal values may be shown once. Read-outs that look alike come from different tables or passages of the source.

Key:
[1] = MTS in vitro cytotoxicity assay, HEK293; format: cell-based; conditions: MTS assay, 96 h exposure, mean ± SD n = 6
From the text: (§1) The absorbance is directly proportional to cell viability.

Lymphoma cells (MT4) = experiment: MTS in vitro cytotoxicity assay, MT4; format: cell-based; conditions: 96 h exposure, mean ± SD n = 6
From the text: as §1

[2] = tested on: normal kidney cells (BHK21); experiment: MTS in vitro cytotoxicity assay, BHK21; format: cell-based; conditions: mean ± SD n = 6
From the text: as §1

[3] = tested on: cervical cancer cells (Hela); experiment: MTS in vitro cytotoxicity assay, Hela; format: cell-based; conditions: 96 h exposure, mean ± SD n = 6
From the text: as §1

lung cancer cells (A549) = experiment: MTS in vitro cytotoxicity assay, A549; format: cell-based; conditions: mean ± SD n = 6
From the text: as §1

[4] = not given; remark: listed apart in the source
[5] = qualitative, aqueous model system / PBS
[6] = tested on: cancer cells (HeLa, HEK293, A549, MT4); conditions: summary over the selected cancer cell lines, MTS assay; for EC50: read-out: EC50 against the cancer cells
Protocol: (§2) An MTS (3-(4,5-dimethylthiazol-2-yl)-5-(3-carboxymethoxy-phenyl)-2-(4-sulfophenyl)-2H-tetrazolium) in vitro cytotoxicity assay was conducted to determine change in cell viability using a colour change. The MTS compound (yellow) is metabolised by viable cells to form a dark purple coloured compound, visible through UV-Vis spectroscopy at 490 nm. The absorbance is directly proportional to cell viability. Samples were tested across three plates in duplicate (n = 6), and the average value was reported.
(§3) HeLa (cervical cancer cells), Hek293 (kidney cancer cells), BHK21 (normal kidney cells), MT4 (lymphoma cells) and A549 (lung cancer cells) were grown using standard tissue culture techniques. The cells (1 × 10^5 cells/mL) were incubated in 96-well plates at 37 °C overnight, with the subsequent addition of the supplied compounds, at concentrations (100 µg/mL, 50.0 µg/mL, 25.0 µg/mL, 12.5 µg/mL, 6.25 µg/mL, 3.125 µg/mL and 0 µg/mL). The cells were left to incubate for four days, after which MTS (5 µL) was added to the cells. The absorbance values were measured at 490 nm after 1 h, 2 h and 4 h incubation periods, averaged, and the viability curves were drawn up.

[7] = tested on: all the tested cell lines (Hela, HEK293, BHK21, MT4, A549); conditions: summary over all tested cell lines, MTS assay
Protocol: as §2, §3

[8] = tested on: kidney cancer cells (HEK293); experiment: MTS in vitro cytotoxicity assay, HEK293; format: cell-based; conditions: EC50 against BHK21 divided by EC50 against HEK293
From the text: as §1

[9] = base: NaHCO3 1.0 equiv., PBS pH 7.4, 310 K, 24 h
[10] = base: None, 2.0 equiv. halide abstractor AgBF4 added, PBS pH 7.4, 310 K, 24 h
[11] = base: None, 1 mol% catalyst, 2.0 equiv. sodium formate, PBS pH 7.4, 310 K, 24 h
[12] = percentage of lactate formed, base: NaHCO3 1.0 equiv., PBS pH 7.4, 310 K, 24 h
[13] = percentage of lactate formed, base: None, 2.0 equiv. AgBF4 added, PBS pH 7.4, 310 K, 24 h
[14] = percentage of lactate formed, base: None, PBS pH 7.4, 310 K, 24 h
[15] = Mesocricetus auratus, BHK-21, 96 h exposure
[16] = Homo sapiens, A549, 96 h exposure

| SMILES | EC50 [1] [µM] | EC50 (Lymphoma cells (MT4)) [µM] | EC50 ([2]; 96 h exposure) [µM] | EC50 [3] [µM] | EC50 (lung cancer cells (A549); 96 h exposure) [µM] | EC50 BHK21 ([2]; 96 h exposure) | further results |
| --- | --- | --- | --- | --- | --- | --- | --- |
| CC(=O)OC[C@H]1O[C@@H]([S-])[C@H](OC(C)=O)[C@@H](OC(C)=O)[C@@H]1OC(C)=O.CCP(CC)CC.[Au+] [Auranofin, reference compound] | < 0.1 | < 2 | < 0.1 | < 2 | 12 ± 2 | – | – |
| Cc1ccc(C(C)C)cc1.F[B-](F)(F)F.[Cl-].[Ru+2].c1ccc(Cn2cc(-c3ccccn3)nn2)cc1 [Complex C1, [Chlorido(2-(1-benzyl-(3-κN)-1,2,3-triazol-4-yl)-(2′-κN)-pyridine)(η^6-p-cymene)ruthenium(II)] tetrafluoroborate] | > 500 | 37 ± 5 | 113 ± 17 | > 500 | > 500 | low cytotoxicities | Selectivity (%) (pH 7.4): 100% and >99%; Time with no detectable changes in the 1H NMR spectra (stability) ([4]; 10% DMSO-d6 in phosphate-buffered D2O (pH 7.4), 37 °C): over 72 h |
| Cc1ccc(C(C)C)cc1.[Cl-].[Ru+2].c1ccc(Cn2cc(-c3ccccn3)nn2)cc1.c1ccc([B-](c2ccccc2)(c2ccccc2)c2ccccc2)cc1 [Complex C2, [Chlorido(2-(1-benzyl-(3-κN)-1,2,3-triazol-4-yl)-(2′-κN)-pyridine)(η^6-p-cymene)ruthenium(II)] tetraphenylborate] | 11 ± 1.5 | 9 ± 1 | 151 ± 0.6 | 15 ± 1.7 | 14 ± 4 | low cytotoxicities | Solubility in aqueous model system [5]: poorly soluble; EC50 [6]: 9 to 16 µM and ≤ 16 µM |
| Cc1ccc(C(C)C)cc1.F[B-](F)(F)F.[Cl-].[Os+2].c1ccc(Cn2cc(-c3ccccn3)nn2)cc1 [Complex C3, [Chlorido(2-(1-benzyl-(3-κN)-1,2,3-triazol-4-yl)-(2′-κN)-pyridine)(η^6-p-cymene)osmium(II)] tetrafluoroborate] | > 500 | 133 ± 12 | > 500 | > 500 | > 500 | – | Conversion (%) [9]: 0.1 ± 0.03%; Conversion (%) [10]: 3 ± 1%; Conversion (%) [11]: 1 ± 0.3%; Selectivity (%) [12]: 100%; Selectivity (%) [13]: >99%; Selectivity (%) [14]: 100% |
| Cc1c(C)c(C)[c-](C)c1C.F[B-](F)(F)F.[Cl-].[Rh+3].c1ccc(Cn2cc(-c3ccccn3)nn2)cc1 [Complex C4, [Chlorido(2-(1-benzyl-(3-κN)-1,2,3-triazol-4-yl)-(2′-κN)-pyridine)(η^6-pentamethylcypentadiene)rhodium(III)] tetrafluoroborate] | > 500 | 60 ± 8 | > 500 | ≥ 300 | > 500 | – | – |
| Cc1c(C)c(C)[c-](C)c1C.F[B-](F)(F)F.[Cl-].[Ir+3].c1ccc(Cn2cc(-c3ccccn3)nn2)cc1 [Complex C5, [Chlorido(2-(1-benzyl-(3-κN)-1,2,3-triazol-4-yl)-(2′-κN)-pyridine)(η^6-pentamethylcypentadiene)iridium(III)] tetrafluoroborate] | > 500 | 67 ± 6 | 55 ± 1 | > 500 | > 500 | low cytotoxicities | Conversion (%) [9]: 0.1 ± 0.02%; TON [9]: ≤0.1; Conversion (%) [10]: 20 ± 3%; TON [10]: 20; Conversion (%) [11]: 14 ± 2%; TON [11]: 14; Selectivity (%) [12]: 100%; Selectivity (%) [13]: >99%; Selectivity (%) [14]: 100%; Conversion of pyruvate to lactate (summary, base condition not specified): < 14%; Time with no detectable changes in the 1H NMR spectra (stability) ([4]; pH 7.4): over 72 h |
| Cc1ccc(C(C)C)cc1.F[B-](F)(F)F.[Cl-].[Ru+2].c1ccc(Cn2cc(-c3ccccn3)nn2)nc1 [Complex C6, [Chlorido(2-((4-(pyridine-2-yl)-(3-κN)-1,2,3-trizol-1-yl)methyl)-(2′-κN)-pyridine)(η^6-p-cymene)ruthenium(II)] tetrafluoroborate] | > 500 | 158 ± 44.2 | – | 388 ± 70.9 | – | N.R. | EC50 A549 (lung cancer cells (A549); 96 h exposure): N.R.; EC50 against the cancer cells [6]: completely inactive against most cancer cells |
| Cc1ccc(C(C)C)cc1.[Cl-].[Ru+2].c1ccc(Cn2cc(-c3ccccn3)nn2)nc1.c1ccc([B-](c2ccccc2)(c2ccccc2)c2ccccc2)cc1 [Complex C7, [Chlorido(2-((4-(pyridine-2-yl)-(3-κN)-1,2,3-trizol-1-yl)methyl)-(2′-κN)-pyridine)(η^6-p-cymene)ruthenium(II)] tetraphenylborate] | 17 ± 4.8 | 20 ± 4.8 | 67 ± 7.3 | 26 ± 0.8 | 53 ± 6 | – | Solubility in aqueous model system [5]: poorly soluble |
| Cc1ccc(C(C)C)cc1.F[B-](F)(F)F.[Cl-].[Os+2].c1ccc(Cn2cc(-c3ccccn3)nn2)nc1 [Complex C8, [Chlorido(2-((4-(pyridine-2-yl)-(3-κN)-1,2,3-trizol-1-yl)methyl)-(2′-κN)-pyridine)(η^6-p-cymene)osmium(II)] tetrafluoroborate] | > 500 | – | > 500 | – | > 500 | – | EC50 MT4 (Lymphoma cells (MT4)): N.R.; EC50 Hela [3]: N.R.; EC50 / activity against all the tested cell lines [7]: not active |
| Cc1ccc(C(C)C)cc1.F[B-](F)(F)F.[Cl-].[Os+2].c1ccc(Cn2cc(-c3ccccn3)nn2)nc1 [Complex C9, [Chlorido(2-((4-(pyridine-2-yl)-(3-κN)-1,2,3-trizol-1-yl)methyl)-(2′-κN)-pyridine)(η^6-p-cymene)osmium(II)] tetrafluoroborate] | > 400 | – | – | – | > 500 | N.R. | EC50 MT4 (Lymphoma cells (MT4)): N.R.; EC50 Hela [3]: N.R.; EC50 / activity against all the tested cell lines [7]: not active |
| Cc1c(C)c(C)[c-](C)c1C.F[B-](F)(F)F.[Cl-].[Rh+3].c1ccc(Cn2cc(-c3ccccn3)nn2)nc1 [Complex C10, [Chlorido(2-((4-(pyridine-2-yl)-(3-κN)-1,2,3-trizol-1-yl)methyl)-(2′-κN)-pyridine)(η^6-pentamethylcypentadiene)rhodium(III)] tetrafluoroborate] | > 500 | > 500 | – | – | – | N.R. | EC50 Hela [3]: N.R.; EC50 A549 (lung cancer cells (A549); 96 h exposure): N.R. |
| Cc1c(C)c(C)[c-](C)c1C.F[B-](F)(F)F.[Cl-].[Ir+3].c1ccc(Cn2cc(-c3ccccn3)nn2)nc1 [Complex C11, [Chlorido(2-((4-(pyridine-2-yl)-(3-κN)-1,2,3-trizol-1-yl)methyl)-(2′-κN)-pyridine)(η^6-pentamethylcypentadiene)iridium(III)] tetrafluoroborate] | > 500 | 111 ± 7 | – | 2.5 ± 1 | > 500 | non-toxic and completely inactive and N.R. | Conversion (%) [11]: 70 ± 5%; Time with no detectable changes in the 1H NMR spectra (stability) ([4]; pH 7.4): over 72 h; EC50 [6]: < 5 µM |
| c1ccc(Cn2cc(-c3ccccn3)nn2)cc1 [Complex L1, 2-(1-Benzyl-1H-1,2,3-triazol-4-yl)pyridine] | – | > 1300 | – | – | – | – | EC50 ([1]; Homo sapiens, HEK293): > 1300 µM; SI (selectivity index) [8]: ≤1; EC50 [2, 15]: > 1300 µM; EC50 ([3]; Homo sapiens, HeLa): 168 ± 31 µM; EC50 (lung cancer cells (A549); [16]): > 1300 µM |
| c1ccc(Cn2cc(-c3ccccn3)nn2)nc1 [Complex L2, 2-((4-(Pyridin-2-yl)-1H-1,2,3-triazol-1-yl)methyl)pyridine] | – | – | – | – | – | – | EC50 ([1]; Homo sapiens, HEK293): > 1300 µM; SI (selectivity index) [8]: ≤1; EC50 MT4 (Lymphoma cells (MT4)): N.R.; EC50 [2, 15]: > 1300 µM; EC50 ([3]; Homo sapiens, HeLa): 1070 ± 134 µM; EC50 (lung cancer cells (A549); [16]): > 1300 µM |
